Here are results for 20 compounds from patent publication US20220089578A1, “COMPOUNDS AS GLP-1R AGONISTS” (Terns Pharmaceuticals, Inc., priority 2020, published 2022).

SMILES strings stand for the structures.

The term EC50 denotes the concentration at which the effect is half-maximal. Low readings indicate an effect from little substance, high ones a need for much substance.

human GLP-1R, sequence (P43220 24-463): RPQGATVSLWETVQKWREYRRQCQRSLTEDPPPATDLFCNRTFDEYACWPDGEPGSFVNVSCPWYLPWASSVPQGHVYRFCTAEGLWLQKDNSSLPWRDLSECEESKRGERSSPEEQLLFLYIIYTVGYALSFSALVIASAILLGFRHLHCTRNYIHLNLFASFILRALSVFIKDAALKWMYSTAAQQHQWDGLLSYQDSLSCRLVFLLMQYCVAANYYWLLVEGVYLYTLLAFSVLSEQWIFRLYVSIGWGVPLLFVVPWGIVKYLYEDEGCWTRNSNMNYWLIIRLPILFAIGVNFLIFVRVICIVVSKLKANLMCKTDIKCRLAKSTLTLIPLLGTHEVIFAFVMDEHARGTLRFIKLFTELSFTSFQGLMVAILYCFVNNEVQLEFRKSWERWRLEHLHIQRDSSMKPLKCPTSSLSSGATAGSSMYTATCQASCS

For the first assay, the target named is human GLP-1R (Homo sapiens, UniProt P43220). Nature of the assay: GLP-1R Cell Assay 1: cAMP Hunter CHO-K1 GLP1R Gs cell line, HitHunter cAMP assay. The class given is cell-based. The following applies: Table 2; cAMP Hunter CHO-K1 GLP1R Gs cells; percent activity normalized to Exendin-4. As to the method:
GLP-1R mediated agonist activity was determined using the cAMP Hunter CHO-K1 GLP1R Gs cell line (DiscoverX, cat# 95-0062C2), a stable CHO-K1 derived cell lines overexpressing naturally Gs coupled wild-type human GLP-1R (accession number: NM_002062.3). GLP-1R agonism in this cell line was detected by measuring cellular cAMP levels using the HitHunter cAMP assay kit (cat# 90-0075SM2), a homogenous, gain-of-signal competitive immune assay based on Enzyme Fragment Complementation (EFC) technology. In this system cellular cAMP competes with exogenous labeled cAMP (ED-cAMP) for binding to an anti-cAMP antibody. […] The luminescent signal is directly proportional to the amount of cellular cAMP.
For compound testing, cells were seeded in a total volume of 20 μL in white walled, 384-well microplates and incubated at 37° C. prior to compound testing. Prior to compound addition, cell culture media was removed by aspiration and replaced with 15 pt reagent buffer (2:1 HBSS/10 mM HEPES: cAMP XS+Ab reagent). Compounds were dissolved in DSMO and serially diluted (3-fold) prior to final dilution to 4X in assay buffer. Samples (5 μL) were added to cells and incubated at 37° C. for […] prior to 1 hour incubation with 20 pt cAMP XS+ED/CL lysis reagent and 3 hour incubation with 20 μL cAMP XS+EA reagent at room temperature. Microplates were read on a PerkinElmer Envision instrument. Compound activity was analyzed using CBIS data analysis suite (ChemInnovation). Percent activity was calculated based on duplicate assay runs and normalized to the positive control Exendin-4, a GLP-1R peptide agonist, using the following formula: […]
The effective compound concentration resulting in 50% response (EC50) was determined by non-linear regression analysis of dose-response curves.
For orientation: cAMP levels reflect the balance of adenylyl cyclase and phosphodiesterase activity.
Take `O=C(O)c1ccc2nc(CN3CCN(c4cccc(OCc5nc6c(F)cccc6s5)n4)CC3)n(C[C@@H]3CCO3)c2c1` [Compound 107, (S)-2-((4-(6-((4-fluorobenzo[d]thiazol-2-yl)methoxy)pyridin-2-yl)piperazin-1-yl)methyl)-1-(oxetan-2-ylmethyl)-1H-benzo[d]imidazole-6-carboxylic acid]: the EC50 worked out at 1.07 nM.

In the case of `N#Cc1cccc2c1CCN(c1cccc(N3CCN(Cc4nc5ccc(C(=O)O)cc5n4C[C@@H]4CCO4)CC3)n1)CC2` [Compound 79, (S)-2-((4-(6-(6-cyano-1,2,4,5-tetrahydro-3H-benzo[d]azepin-3-yl)pyridin-2-yl)piperazin-1-yl)methyl)-1-(oxetan-2-ylmethyl)-1H-benzo[d]imidazole-6-carboxylic acid], the EC50 turned out to be 206 nM. Compared with the last compound, the EC50 is about 190-fold higher.

Consider `O=C(O)c1ccc2nc(CN3CCN(c4cccc(OCc5cc6ccccc6cn5)n4)CC3)n(C[C@@H]3CCO3)c2c1` [Compound 85, (S)-2-((4-(6-(isoquinolin-3-ylmethoxy)pyridin-2-yl)piperazin-1-yl)methyl)-1-(oxetan-2-ylmethyl)-1H-benzo[d]imidazole-6-carboxylic acid], for which the EC50 stood at 6.11 nM.

For `O=C(O)c1ccc2nc(CN3CCN(c4ccc5ncn(Cc6ccccc6)c5n4)CC3)n(C[C@@H]3CCO3)c2c1` [Compound 28, (S)-2-((4-(3-benzyl-3H-imidazo[4,5-b]pyridin-5-yl)piperazin-1-yl)methyl)-1-(oxetan-2-ylmethyl)-1H-benzo[d]imidazole-6-carboxylic acid], the EC50 was over 500 nM.

Consider `O=C(O)c1ccc2nc(CN3CCC(c4cccc(OCc5nccs5)n4)CC3)n(C[C@@H]3CCO3)c2c1` [Compound 139, (S)-1-(oxetan-2-ylmethyl)-2-((4-(6-(thiazol-2-ylmethoxy)pyridin-2-yl)piperidin-1-yl)methyl)-1H-benzo[d]imidazole-6-carboxylic acid], for which the EC50 was determined as 2.65 nM. This lies in the single-digit nanomolar range.

Take `Cn1cnc2ccc(COc3cccc(N4CCN(Cc5nc6ccc(C(=O)O)cc6n5C[C@@H]5CCO5)CC4)n3)cc21` [Compound 72, (S)-2-((4-(6-((1-methyl-1H-benzo[d]imidazol-6-yl)methoxy)pyridin-2-yl)piperazin-1-yl)methyl)-1-(oxetan-2-ylmethyl)-1H-benzo[d]imidazole-6-carboxylic acid]: the EC50 worked out at 4.6 nM. This EC50 is about 1.7-fold higher than that of the compound before.

`O=C(O)c1ccc2nc(CN3CCN(c4cccc(OCc5ccc6ncoc6c5)n4)CC3)n(C[C@@H]3CCO3)c2c1` [Compound 75, (S)-2-((4-(6-(benzo[d]oxazol-6-ylmethoxy)pyridin-2-yl)piperazin-1-yl)methyl)-1-(oxetan-2-ylmethyl)-1H-benzo[d]imidazole-6-carboxylic acid]: it took 2.17 nM to reach a half-maximal effect (EC50).

Regarding `Cc1cn(C2CCN(Cc3nc4ccc(C(=O)O)cc4n3C[C@@H]3CCO3)CC2)nc1OCc1ccc(C#N)cc1F` [Compound 114], the EC50 came out at 5.11 nM.

In the case of `Cn1c(COc2cccc(N3CCN(Cc4nc5ccc(C(=O)O)cc5n4C[C@@H]4CCO4)CC3)n2)nc2ccccc21` [Compound 71, (S)-2-((4-(6-((1-methyl-1H-benzo[d]imidazol-2-yl)methoxy)pyridin-2-yl)piperazin-1-yl)methyl)-1-(oxetan-2-ylmethyl)-1H-benzo[d]imidazole-6-carboxylic acid], the EC50 stood at 15.7 nM.

Turning to `O=C(O)c1ccc2nc3n(c2c1)CCOC[C@@H]3N1CCC(c2cccc(OCc3ccccc3)n2)CC1` [Compound 94, (R)-5-(4-(6-(benzyloxy)pyridin-2-yl)piperidin-1-yl)-1,2,4,5-tetrahydrobenzo[4,5]imidazo[1,2-d][1,4]oxazepine-9-carboxylic acid], the midpoint of the response, the EC50, lay at 152 nM. This EC50 is about 9.7-fold higher than that of the compound before.

`O=C(O)c1ccc2nc(CN3CCN(c4cccc(OC5(c6ccccc6)CCC5)n4)CC3)n(C[C@@H]3CCO3)c2c1` [Compound 51, (S)-1-(oxetan-2-ylmethyl)-2-((4-(6-(1-phenylcyclobutoxy)pyridin-2-yl)piperazin-1-yl)methyl)-1H-benzo[d]imidazole-6-carboxylic acid] gave an EC50 of 348 nM.

For `O=C(O)c1ccc2nc(CN3CC[C@]4(c5cccc(OCc6ccc(Cl)cc6F)n5)C[C@@H]4C3)n(C[C@@H]3CCO3)c2c1` [Compound 98, 2-(((1S,6R)-6-(6-((4-chloro-2-fluorobenzyl)oxy)pyridin-2-yl)-3-azabicyclo[4.1.0]heptan-3-yl)methyl)-1-(((S)-oxetan-2-yl)methyl)-1H-benzo[d]imidazole-6-carboxylic acid], the EC50 is 0.556 nM.

`O=C(O)c1ccc2nc(CN3CCN(c4cccc(OC5CCC6(CCC6)CC5)n4)CC3)n(C[C@@H]3CCO3)c2c1` [Compound 49, (S)-1-(oxetan-2-ylmethyl)-2-((4-(6-(spiro[3.5]nonan-7-yloxy)pyridin-2-yl)piperazin-1-yl)methyl)-1H-benzo[d]imidazole-6-carboxylic acid] displayed a concentration for a half-maximal effect (EC50) of over 500 nM.

Take `N#CC1(COc2cccc(N3CCN(Cc4nc5ccc(C(=O)O)cc5n4C[C@@H]4CCO4)CC3)n2)CCOCC1` [Compound 41, (S)-2-((4-(6-((4-cyanotetrahydro-2H-pyran-4-yl)methoxy)pyridin-2-yl)piperazin-1-yl)methyl)-1-(oxetan-2-ylmethyl)-1H-benzo[d]imidazole-6-carboxylic acid]: the EC50 is over 500 nM.

In turn, `CCn1cncc1Cn1c(CN2CC[C@]3(c4cccc(OCc5ccc(C#N)cc5F)n4)C[C@@H]3C2)nc2ccc(C(=O)O)cc21` (single isomer, unassigned) [Compound 121-P2] yielded a half-maximal effective concentration (EC50) of 0.0386 nM. In other words, the picomolar range.

For `N#CC1(COc2cccc(N3CCN(Cc4nc5ccc(C(=O)O)cc5n4C[C@@H]4CCO4)CC3)n2)COC1` [Compound 61, (S)-2-((4-(6-((3-cyanooxetan-3-yl)methoxy)pyridin-2-yl)piperazin-1-yl)methyl)-1-(oxetan-2-ylmethyl)-1H-benzo[d]imidazole-6-carboxylic acid], the EC50 is over 500 nM.

Still in this assay, the particulars now being: Table 3; cAMP Hunter CHO-K1 GLP1R Gs cells; percent activity normalized to Exendin-4.
On to `O=C(O)c1ccc2nc(CN3CCN(c4nc(OCc5ccccc5)cc5ccccc45)CC3)n(C[C@@H]3CCO3)c2c1` [Compound 157, (S)-2-((4-(3-(benzyloxy)isoquinolin-1-yl)piperazin-1-yl)methyl)-1-(oxetan-2-ylmethyl)-1H-benzo[d]imidazole-6-carboxylic acid], for which the EC50 is over 500 nM.

The compound `N#Cc1ccc(COc2cccc(N3CCN(Cc4nc5ccc(C(=O)O)cc5n4C[C@@H]4CCO4)CC3)c2)c(F)c1` [Compound 150, (S)-2-((4-(3-((4-cyano-2-fluorobenzyl)oxy)phenyl)piperazin-1-yl)methyl)-1-(oxetan-2-ylmethyl)-1H-benzo[d]imidazole-6-carboxylic acid] returned an EC50 of 0.9 nM.

Take `N#Cc1ccc(N2CCc3ccc(N4CCN(Cc5nc6ccc(C(=O)O)cc6n5C[C@@H]5CCO5)CC4)nc3C2)c(F)c1` [Compound 144, (S)-2-((4-(7-(4-cyano-2-fluorophenyl)-5,6,7,8-tetrahydro-1,7-naphthyridin-2-yl)piperazin-1-yl)methyl)-1-(oxetan-2-ylmethyl)-1H-benzo[d]imidazole-6-carboxylic acid]: the EC50 is over 500 nM.

Turning to `N#Cc1ccc(COc2ncccc2[C@@]23CCN(Cc4nc5ccc(C(=O)O)cc5n4CC4CCO4)C[C@@H]2C3)c(F)c1` (single isomer, unassigned) [Compound 167, 2-((6-(2-((4-cyano-2-fluorobenzyl)oxy)pyridin-3-yl)-3-azabicyclo[4.1.0]heptan-3-yl)methyl)-1-(oxetan-2-ylmethyl)-1H-benzo[d]imidazole-6-carboxylic acid], a half-maximal effect (EC50) was put at 266 nM.
